The source of these data is patent US20260297070A1, “CYCLIC [COMPOUND LEFT OUT] WRN INHIBITORS” (Nimbus Wadjet, Inc., priority 2023, published 2026).

Read-outs that look alike come from different tables or passages of the source.

This test addresses T1, human Werner helicase (WRN-BV08, Uniprot Q14191, amino acids 517-1235 with L1074F point mutation) (Homo sapiens, UniProt Q14191, L1074F).
T1 construct: Uniprot Q14191, amino acids 517-1235 with L1074F point mutation; TEV-cleavable 8×His (C, cleaved yes); made in house; host or cells: Sf9 insect cells (baculovirus)
Briefly: WRN (BV08) ADP-Glo Assay. The note with it: 5 μM ATP, 0.1 nM DNA duplex, 15 min preincubation, 60 min at 25° C., pH 7.5, 1% DMSO. Type of test: biochemical. The essentials:
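ADP-Glo luminescence read-out of ATP hydrolysis. Conditions: 0.15 nM WRN, 5 μM ATP, 0.1 nM DNA duplex, 1% DMSO, 60 min at 25 °C after 15 min compound preincubation. Max/min controls were DMSO and 20 μM NSC-617145; IC50 from four-parameter fit.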
(In general: ADP-Glo turns the ADP formed in a reaction into a luminescent signal.)

Setting [1] is: 0.15 nM WRN, read-out: ADP-Glo_hWRN_IC50.

T1 sequence (Q14191 with tags, fused parts or gaps L1074F limits assumed): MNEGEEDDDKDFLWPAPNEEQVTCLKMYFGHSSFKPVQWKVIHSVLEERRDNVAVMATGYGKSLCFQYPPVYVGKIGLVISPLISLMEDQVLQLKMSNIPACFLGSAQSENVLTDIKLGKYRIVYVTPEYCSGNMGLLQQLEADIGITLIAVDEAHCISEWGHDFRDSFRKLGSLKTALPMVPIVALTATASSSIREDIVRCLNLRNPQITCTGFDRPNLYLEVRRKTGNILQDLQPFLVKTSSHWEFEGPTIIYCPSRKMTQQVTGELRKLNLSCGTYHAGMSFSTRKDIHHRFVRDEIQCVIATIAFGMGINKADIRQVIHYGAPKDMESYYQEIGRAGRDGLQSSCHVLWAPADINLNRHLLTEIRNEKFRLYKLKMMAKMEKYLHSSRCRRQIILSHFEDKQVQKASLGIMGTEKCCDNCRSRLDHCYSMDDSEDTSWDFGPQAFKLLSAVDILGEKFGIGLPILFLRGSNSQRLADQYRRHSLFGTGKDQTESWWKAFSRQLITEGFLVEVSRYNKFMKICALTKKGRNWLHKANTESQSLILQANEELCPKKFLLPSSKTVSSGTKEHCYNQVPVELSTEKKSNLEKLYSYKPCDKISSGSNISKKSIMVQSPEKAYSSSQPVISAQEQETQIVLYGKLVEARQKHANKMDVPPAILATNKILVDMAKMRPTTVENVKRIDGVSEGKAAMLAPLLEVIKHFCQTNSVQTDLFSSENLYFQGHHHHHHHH

For the compound `COCCc1cccn1-c1ccc(CC(=O)N(Cc2ccccc2)C2C=CS(=O)(=O)C2)cc1` (stereo not shown) [I-384, N-benzyl-N-(1,1-dioxo-2,3-dihydro-1lambda6-thiophen-3-yl)-2-{4-[2-(2-methoxyethyl)-1H-pyrrol-1-yl]phenyl}acetamide], the IC50 under setting [1] was above 50 µM.

For `CC(C)C(=O)NC(Cc1c[nH]c2ccccc12)C(=O)N(Cc1ccncc1)C1C=CS(=O)(=O)C1` (stereo not shown) [I-559, N-(1,1-dioxo-2,3-dihydro-1lambda6-thiophen-3-yl)-3-(1H-indol-3-yl)-2-(2-methylpropanamido)-N-[(pyridin-4-yl)methyl]propanamide], the IC50 under setting [1] was above 50 µM.

On to `O=C(Cc1ccc(-c2ccc(F)c(F)c2)cc1)N(Cc1ccncc1)C1C=CS(=O)(=O)C1` (stereo not shown) [I-143, 2-{3′,4′-difluoro-[1,1′-biphenyl]-4-yl}-N-(1,1-dioxo-2,3-dihydro-1lambda6-thiophen-3-yl)-N-[(pyridin-4-yl)methyl]acetamide], for which the IC50 under setting [1] was 0.5 to 5 µM.

Consider `O=C([C@H]1[C@@H]2CCC[C@@H]21)N(Cc1ccncc1)C1C=CS(=O)(=O)C1` (stereo partly drawn) [I-583, (1R,5S,6R)-N-(1,1-dioxo-2,3-dihydro-1lambda6-thiophen-3-yl)-N-[(pyridin-4-yl)methyl]bicyclo[3.1.0]hexane-6-carboxamide], for which the IC50 under setting [1] was above 50 µM.

As to `CC(C)(O)c1cc(CN(C(=O)Cc2ccc(-c3ccc(F)cc3)cc2F)C2C=CS(=O)(=O)C2)ccn1` (stereo not shown) [I-52, 2-{3,4′-difluoro-[1,1′-biphenyl]-4-yl}-N-(1,1-dioxo-2,3-dihydro-1lambda6-thiophen-3-yl)-N-{[2-(2-hydroxypropan-2-yl)pyridin-4-yl]methyl}acetamide], the IC50 under setting [1] is below 0.5 µM.

`CN(C)C(=O)c1ccc(CN(C(=O)Cc2ccc(-n3cccc3)cc2)C2C=CS(=O)(=O)C2)cc1` (stereo not shown) [I-259, 4-{[N-(1,1-dioxo-2,3-dihydro-1lambda6-thiophen-3-yl)-2-[4-(1H-pyrrol-1-yl)phenyl]acetamido]methyl}-N,N-dimethylbenzamide]: the IC50 under setting [1] is 5 to 10 µM.

As to `O=C(C1CC(c2ccncc2)=NO1)N(Cc1ccncc1)C1C=CS(=O)(=O)C1` (stereo not shown) [I-621, N-(1,1-dioxo-2,3-dihydro-1lambda6-thiophen-3-yl)-3-(pyridin-4-yl)-N-[(pyridin-4-yl)methyl]-4,5-dihydro-1,2-oxazole-5-carboxamide], the IC50 under setting [1] was above 50 µM.

In the case of `O=C(Cc1ccc(-n2cccc2)cc1F)N(Cc1ccncc1)C1C=CS(=O)(=O)C1` (stereo not shown) [I-161, N-(1,1-dioxo-2,3-dihydro-1lambda6-thiophen-3-yl)-2-[2-fluoro-4-(1H-pyrrol-1-yl)phenyl]-N-[(pyridin-4-yl)methyl]acetamide], the IC50 under setting [1] lay in the range of 0.5 to 5 µM.

In the case of `O=C(Cc1csc(-c2ccccc2)n1)N(Cc1ccncc1)C1C=CS(=O)(=O)C1` (stereo not shown) [I-547, N-(1,1-dioxo-2,3-dihydro-1lambda6-thiophen-3-yl)-2-(2-phenyl-1,3-thiazol-4-yl)-N-[(pyridin-4-yl)methyl]acetamide], under setting [1], the IC50 was above 50 µM.

In the case of `O=C(Cn1cc(-c2ccc(F)c(F)c2)cn1)N(Cc1ccnc(N2CCC2)c1)C1C=CS(=O)(=O)C1` (stereo not shown) [I-760, N-{[2-(azetidin-1-yl)pyridin-4-yl]methyl}-2-[4-(3,4-difluorophenyl)-1H-pyrazol-1-yl]-N-(1,1-dioxo-2,3-dihydro-1lambda6-thiophen-3-yl)acetamide], under setting [1], the IC50 is below 0.5 µM.

For `O=C(Cc1ccc(-n2cccc2)cc1)N(Cc1ccc(B(O)O)cc1)C1C=CS(=O)(=O)C1` (stereo not shown) [I-321, (4-((2-(4-(1H-pyrrol-1-yl)phenyl)-N-(1,1-dioxido-2,3-dihydrothiophen-3-yl)acetamido)methyl)phenyl)boronic acid], the IC50 under setting [1] was 10 to 50 µM.

For the compound `COc1ccc2c(CC(=O)N(Cc3ccncc3)C3C=CS(=O)(=O)C3)c[nH]c2c1` (stereo not shown) [I-541, N-(1,1-dioxo-2,3-dihydro-1lambda6-thiophen-3-yl)-2-(6-methoxy-1H-indol-3-yl)-N-[(pyridin-4-yl)methyl]acetamide], the IC50 under setting [1] is above 50 µM.

Take `COc1nc(CN(C(=O)Cc2ccc(S(F)(F)(F)(F)F)cc2)C2C=CS(=O)(=O)C2)cc(N(C)C)n1` (stereo not shown) [I-634, N-{[6-(dimethylamino)-2-methoxypyrimidin-4-yl]methyl}-N-(1,1-dioxo-2,3-dihydro-1lambda6-thiophen-3-yl)-2-[4-(pentafluoro-lambda6-sulfanyl)phenyl]acetamide]: the IC50 under setting [1] fell in the range of 5 to 10 µM.

For `CN(C)C(C(=O)N(Cc1ccnc(C(C)(C)O)c1)C1C=CS(=O)(=O)C1)c1ccc(-c2ccc(F)c(F)c2)cc1F` (stereo not shown) [I-307, 2-(dimethylamino)-N-(1,1-dioxo-2,3-dihydro-1lambda6-thiophen-3-yl)-N-{[2-(2-hydroxypropan-2-yl)pyridin-4-yl]methyl}-2-{3,3′,4′-trifluoro-[1,1′-biphenyl]-4-yl}acetamide], the IC50 under setting [1] lay within 10 to 50 µM.

Consider `O=C(c1ccncc1)N(CCc1ccc(-n2cccc2)cc1)C1C=CS(=O)(=O)C1` (stereo not shown) [I-553, N-(1,1-dioxo-2,3-dihydro-1lambda6-thiophen-3-yl)-N-{2-[4-(1H-pyrrol-1-yl)phenyl]ethyl}pyridine-4-carboxamide], for which the IC50 under setting [1] is above 50 µM.

For `O=C(Cc1ccc2c(c1)CCCC2)N(Cc1ccncc1)C1C=CS(=O)(=O)C1` (stereo not shown) [I-643, N-(1,1-dioxo-2,3-dihydro-1lambda6-thiophen-3-yl)-N-[(pyridin-4-yl)methyl]-2-(5,6,7,8-tetrahydronaphthalen-2-yl)acetamide], under setting [1], the IC50 lay within 10 to 50 µM.

In the case of `CC(C(=O)N(Cc1ccnc(C(C)(C)O)c1)C1C=CS(=O)(=O)C1)n1cc(-c2ccc(C(F)(F)F)cc2)cn1` (single isomer, unassigned) [I-774, (2R*)-N-[(3R**)-1,1-dioxo-2,3-dihydro-1lambda6-thiophen-3-yl]-N-{[2-(2-hydroxypropan-2-yl)pyridin-4-yl]methyl}-2-{4-[4-(trifluoromethyl)phenyl]-1H-pyrazol-1-yl}propanamide], the IC50 under setting [1] lay within 10 to 50 µM.

With `O=C([C@H]1CC[C@@H](C(F)(F)F)O1)N(Cc1ccncc1)C1C=CS(=O)(=O)C1` (mixture of isomers) [I-714, rac-(2R,5S)-N-(1,1-dioxo-2,3-dihydro-1lambda6-thiophen-3-yl)-N-[(pyridin-4-yl)methyl]-5-(trifluoromethyl)oxolane-2-carboxamide], the IC50 under setting [1] is above 50 µM.

For the compound `COC(C(=O)N(Cc1ccncc1)C1C=CS(=O)(=O)C1)c1ccc(-c2ccc(F)cc2)cc1` (single isomer, unassigned) [I-476, (2R*)-N-[(3R**)-1,1-dioxo-2,3-dihydro-1lambda6-thiophen-3-yl]-2-{4′-fluoro-[1,1′-biphenyl]-4-yl}-2-methoxy-N-[(pyridin-4-yl)methyl]acetamide], the IC50 under setting [1] is above 50 µM.

On to `O=C(Cc1ccc(-n2cccc2)cc1F)N(Cc1ccncc1)C1C=CS(=O)(=O)C1` (single isomer, unassigned) [I-520], for which, under setting [1], the IC50 was above 50 µM.

Compound `O=C(CN1CC=C(c2ccccc2)CC1)N(Cc1ccncc1)C1C=CS(=O)(=O)C1` (stereo not shown) [I-478, N-(1,1-dioxo-2,3-dihydro-1lambda6-thiophen-3-yl)-2-(4-phenyl-1,2,3,6-tetrahydropyridin-1-yl)-N-[(pyridin-4-yl)methyl]acetamide] showed an IC50 (ADP-Glo_hWRN_IC50, 0.15 nM WRN) above 50 µM.

On to `O=C(Cc1ccc(-n2cccc2)cc1)N(Cc1nc(C2CC2)cs1)C1C=CS(=O)(=O)C1` (stereo not shown) [I-111, N-[(4-cyclopropyl-1,3-thiazol-2-yl)methyl]-N-(1,1-dioxo-2,3-dihydro-1lambda6-thiophen-3-yl)-2-[4-(1H-pyrrol-1-yl)phenyl]acetamide], for which the IC50 under setting [1] fell in the range of 0.5 to 5 µM.

Turning to `Cc1cccn1-c1ccc(CC(=O)N(Cc2ccc(C(=O)O)cc2)C2C=CS(=O)(=O)C2)c(F)c1` (stereo not shown) [I-138, 4-{[N-(1,1-dioxo-2,3-dihydro-1lambda6-thiophen-3-yl)-2-[2-fluoro-4-(2-methyl-1H-pyrrol-1-yl)phenyl]acetamido]methyl}benzoic acid], the IC50 under setting [1] lay within 0.5 to 5 µM.

As for `CC(C)(O)c1cc(CN(C(=O)C2Cc3cc(C(F)(F)F)ccc3O2)C2C=CS(=O)(=O)C2)ccn1` (stereo not shown) [I-131, N-(1,1-dioxo-2,3-dihydro-1lambda6-thiophen-3-yl)-N-{[2-(2-hydroxypropan-2-yl)pyridin-4-yl]methyl}-5-(trifluoromethyl)-2,3-dihydro-1-benzofuran-2-carboxamide], the IC50 under setting [1] was 0.5 to 5 µM.

Regarding `CC(C)(O)c1cc(CN(C(=O)Cn2cc(-c3ccc(F)cc3)cn2)C2C=CS(=O)(=O)C2)ccn1` (stereo not shown) [I-42, N-(1,1-dioxo-2,3-dihydro-1lambda6-thiophen-3-yl)-2-[4-(4-fluorophenyl)-1H-pyrazol-1-yl]-N-{[2-(2-hydroxypropan-2-yl)pyridin-4-yl]methyl}acetamide], the IC50 under setting [1] is below 0.5 µM.

For `O=C(Cc1ccc(S(F)(F)(F)(F)F)cc1)N(Cc1nc(C2CC2)cs1)C1C=CS(=O)(=O)C1` (stereo not shown) [I-41, N-[(4-cyclopropyl-1,3-thiazol-2-yl)methyl]-N-(1,1-dioxo-2,3-dihydro-1lambda6-thiophen-3-yl)-2-[4-(pentafluoro-lambda6-sulfanyl)phenyl]acetamide], the IC50 under setting [1] was below 0.5 µM.

As to `O=C(Cn1cc(-c2ccc(F)cc2)cn1)N(Cc1ccnc(OC(F)(F)F)c1)C1C=CS(=O)(=O)C1` (stereo not shown) [I-753, N-(1,1-dioxo-2,3-dihydro-1lambda6-thiophen-3-yl)-2-[4-(4-fluorophenyl)-1H-pyrazol-1-yl]-N-{[2-(trifluoromethoxy)pyridin-4-yl]methyl}acetamide], under setting [1], the IC50 fell in the range of 0.5 to 5 µM.

Consider `CC(C)(O)c1cc(CN(C(=O)Cn2cc(-c3cc(F)c(F)cc3F)cn2)C2C=CS(=O)(=O)C2)ccn1` (single isomer, unassigned) [I-763], for which the IC50 under setting [1] was below 0.5 µM.
